This assay concerns the target T1, KDM4E (Homo sapiens, UniProt B2RXH2).
T1 construct: KDM4DM1-L359,[39]; KDM4EM1-R336,[30]; His6 (N); made in house; host or cells: Escherichia coli
T1 sequence (B2RXH2 1-336): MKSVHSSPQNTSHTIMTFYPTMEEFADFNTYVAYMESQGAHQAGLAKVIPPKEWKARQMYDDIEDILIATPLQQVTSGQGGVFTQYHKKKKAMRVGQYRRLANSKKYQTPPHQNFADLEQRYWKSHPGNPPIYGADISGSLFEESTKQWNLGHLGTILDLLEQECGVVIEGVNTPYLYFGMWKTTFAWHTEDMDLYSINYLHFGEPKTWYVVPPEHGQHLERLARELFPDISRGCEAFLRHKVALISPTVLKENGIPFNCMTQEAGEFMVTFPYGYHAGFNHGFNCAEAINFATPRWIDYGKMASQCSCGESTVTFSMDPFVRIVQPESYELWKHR
Kind of assay: formaldehyde dehydrogenase (FDH)-coupled demethylation assay, KDM4E. It counts as biochemical. Particulars: KDM4E (400 nM); for Km / kcat (KDM4E) / kcat/KM (KDM4E): FDH-coupled fluorescence assay, peptide 1–50 μM, HEPES pH 7.5; for Km / kcat (KDM4E): FAS 20 μM, LAA 200 μM, 2OG 200 μM, NAD+ 500 μM, FDH 2.0 μM, mean ± SEM (n = 3); for kcat/KM (KDM4E): catalytic efficiency; for substrate inhibition in Michaelis-Menten kinetics (KDM4E): FDH-coupled assay, Fig. S25. On the procedure: Kinetic parameters were determined by recording the initial reaction rates of NADH production at varying histone peptide concentrations (Fig. S24 and S25).
Kinetic parameters for demethylation of N^ε-trimethylated H1 peptides by KDM4D and KDM4E (400 nM) measured using a formaldehyde dehydrogenase-coupled demethylation assay. H1 peptide (1–50 μM), FAS (20 μM), LAA (200 μM), 2OG (200 μM), NAD^+ (500 μM), KDM4 enzyme (0.8 μM) and FDH (2.0 μM) in HEPES buffer at pH 7.5.
Substrate Km values for KDM4 enzymes were determined using a reported formaldehyde dehydrogenase/NAD coupled enzyme assay that quantifies formaldehyde production.[30] In brief, DNA encoding for wild-type full-length formaldehyde dehydrogenase was synthesised (by GenScript) and cloned into the pET-28B vector. The resultant plasmid was then transformed into the Rosetta strain of Escherichia coli. Coupled enzyme-assays were carried out in black polystyrene 384-well non-binding surface microplates (Corning) and kinetic measurements were obtained using a PHERAstar FS plate reader (BMG Labtech) equipped with a 350 nm excitation and 460 nm emission optic module.[30] All steps were performed in the assay buffer (50 mM HEPES pH 7.5, 0.01% (v/v) Tween-20). Substrate mixtures were prepared freshly and contained FAS (20 μM), LAA (200 μM), 2OG (200 μM), NAD^+ (500 μM), and H1 peptide (1–50 μM); they were dispensed (25 μL final volume) in triplicate. Assays were initiated by plate reader injection of 25 μL of a mixture of KDM4 (0.8 μM) and formaldehyde dehydrogenase (FDH) (2.0 μM) in assay buffer (50 mM HEPES pH 7.5, 0.01% (v/v) Tween-20). Production of NADH was measured at 60 second intervals over 25 cycles. Kinetic parameters were determined from the reaction rate during the initial linear phase of formaldehyde production, and specific activities were calculated from a formaldehyde standard curve and fitted to the Michaelis–Menten equation using GraphPad Prism Version 5.0 (GraphPad software, La Jolla, CA, USA). Each assay was carried out in triplicate with independently prepared reaction mixtures.

Square brackets hold non-standard residues; d marks the D form. Ends that are not written are not given here. Lys(Me3) = C[N+](C)(C)CCCC[C@H](N)C(=O)O

Regarding “KKKAAK[Lys(Me3)]AGGTPRKA [Peptide H1.2K26me3, 15-mer linker histone H1.2 residues 20-34 peptide, tri-methylated K26]”, the Michaelis-Menten constant (Km) stood at 5.22 ± 0.54 µM, the “kcat (KDM4E)” value worked out at 0.0313 ± 0.0015 s⁻¹ and the “kcat/KM (KDM4E)” value amounted to 6000 M⁻¹ s⁻¹.
Turning to “KKKAA[Lys(Me3)]KAGGTPRKA [Peptide H1.2K25me3, 15-mer linker histone H1.2 residues 20-34 peptide, tri-methylated K25]”, the “substrate inhibition in Michaelis-Menten kinetics (KDM4E)” value is reported as “evidence for substrate inhibition”, the Km was found to be 18.5 ± 6.87 µM, the “kcat (KDM4E)” value worked out at 0.0767 ± 0.0218 s⁻¹ and the “kcat/KM (KDM4E)” value worked out at 4120 M⁻¹ s⁻¹.
The like results for “KKKAR[Lys(Me3)]SAGAAKRKA [Peptide H1.4K25me3, 15-mer linker histone H1.4 residues 20-34 peptide, tri-methylated K25]” were, in that order, “evidence for substrate inhibition”, 11.5 ± 3.19 µM, 0.0435 ± 0.00783 s⁻¹ and 3770 M⁻¹ s⁻¹.
On to “KKKATK[Lys(Me3)]AAGAGAAK [Peptide H1.5K26me3, 15-mer linker histone H1.5 residues 20-34 peptide, tri-methylated K26]”, for which the Km is 4.04 ± 0.51 µM, the “kcat (KDM4E)” value amounted to 0.0218 ± 0.0013 s⁻¹ and the “kcat/KM (KDM4E)” value is 5400 M⁻¹ s⁻¹.
“KKKA[Lys(Me3)]KAGATAGKRK [Peptide H1.3K24me3, 15-mer linker histone H1.3 residues 20-34 peptide, tri-methylated K24]”: the Michaelis constant (Km) was found to be 6.45 ± 1.51 µM, the “kcat (KDM4E)” value turned out to be 0.0333 ± 0.00417 s⁻¹ and the “kcat/KM (KDM4E)” value worked out at 5170 M⁻¹ s⁻¹.

As a reminder, the Km is the concentration of substrate that gives half-maximal velocity.

For the origin of these results see PMC12363342, “Investigating the N-terminal linker histone H1 subtypes as substrates for JmjC lysine demethylases” (RSC Chemical Biology, 2025).
